Data on 1 compound can be found in PMC10574883, “Harnessing the Bioactive Potential of Limonium spathulatum (Desf.) Kuntze: Insights into Enzyme Inhibition and Phytochemical Profile” (Plants, 2023).

This assay deals with T1, tyrosinase from mushroom.
T1 construct: gene PPO3; commercial native mushroom enzyme (Fischer Scientific)
As to the kind of experiment: tyrosinase inhibition assay. It counts as biochemical. The conditions noted are these: positive control; anomer of arbutin not stated. The source says: tyrosinase inhibition assay on tyrosinase from mushroom

Compound `OC[C@H]1O[C@@H](Oc2ccc(O)cc2)[C@H](O)[C@@H](O)[C@@H]1O` [Arbutin] came in with a Tyrosinase of 0.17 ± 0.01 mg/mL.
